# Article doi:10.1101/2025.04.10.648262, “Time-resolved phenotyping at subcellular resolution reveals shared principles and key trade-offs across antimicrobial peptide activities” (bioRxiv, 2026)
# Read-outs that look alike come from different tables or passages of the source. Square brackets hold non-standard residues; d marks the D form. Ends that are not written are not given here. Peptide text beside a SMILES is read from it. * marks the point of attachment. 5TAMRA = CN(C)c1ccc2c(c1)Oc1cc(N(C)C)ccc1C21OC(=O)c2cc(C(=O)*)ccc21
# System: E. coli (MG1655)
# Type: cell-based, Escherichia coli
# Protocol: For all experiments and E. coli strains, cells were grown in a medium (M9gluCAAT) with M9 salts (33.7 mM Na2HPO4, 22mM KH2PO4, 8.55 mM NaCl, 9.35 mM NH4Cl), 0.2% (w/v) glucose, 0.4% (w/v) casamino acids, 1 mM MgSO4, 0.3 mM CaCl2, 1 μg/mL thiamine, and trace elements (13.4 mM ethylene-diamine-tetra-acetic-acid (EDTA), 3.1 mM FeCl3-6H2O, 0.62 mM ZnCl2, 76 μM CuCl2-2H2O, 42 μM CoCl2-2H2O, 162 μM H3BO3, 8.1 μM MnCl2-4H2O). Prior to every experiment, cells were first inoculated into M9gluCAAT and grown to stationary phase at 37°C. For all assays except the biofilm experiments, the culture was diluted to 1/10,000 or more in fresh medium and grown at 37°C until it reached an optical density at 600 nm (OD) of 0.2–0.4. For the biofilm experiments, cells were grown in M9gluCAAT supplemented with 100 μg/mL ampicillin to maintain the GFP-expressing plasmid. The overnight stationary-phase cultures were then diluted into the same medium to an OD of 0.015. See below for details on biofilm growth.
# Except for the biofilm experiments, the strains used in this study were derived from MG1655 (ATCC 47076), which was used to estimate the minimum inhibitory concentration (MIC) for all the studied peptides (or peptoids) using a microplate reader (Figure 1A). To detect the timing of outer and inner membrane permeabilization to proteins, strain CJW7845 was constructed to carry two freely diffusing fluorescent proteins: mScarlet-I in the periplasm and mTagBFP2 in the cytoplasm. Construction of CJW7845 was done by transforming pBAD-mTagBFP2 plasmid (Addgene #34632, a gift from Vladislav Verkhusha; ([Subach et al., 2011])) into an E. coli strain expressing a periplasmic mScarlet-I reporter ([Cañas-Duarte 2021]), as previously described ([Chung et al., 1989]). Transformants were restreaked on fresh selection plates and confirmed via microscopy.
# To determine the minimal inhibitory concentration (MIC) of the selected AMPs against either MG1655 or ATCC 25922 E. coli strains, exponentially growing cells were diluted in fresh medium to an OD = 10^−6 (~500 cells/mL) and mixed 50:50 with titrated AMP concentrations (which were chosen to be over a range that included the MIC) in a 96-well plate (flat bottom with low evaporation lid, 3595, Corning, Arizona, USA). A final OD of 5 × 10^−7 corresponds to ~250 cells/mL. OD curves were sampled every 5 min for a total of 48 h using a microplate reader (BioTek Synergy 2, Agilent Technologies Inc., California, USA). Raw data were exported as a text file and analysed using a custom-written Python script (microplate_reader_analysis.py). To measure maximum growth rates, the log(OD) was fitted using a linear regression over a 12-point moving window (60 min), which provides the instantaneous growth rate (log(OD)/h), from which the global maximum was computed. The MIC was defined as the minimum AMP concentration for which the maximum growth rate was < 0.2 log(OD)/h within the first 20 h of incubation. Each MIC experiment was performed independently at least three times (with at least two technical replicates each), and the mode across all replicates was taken as the final MIC; in the rare cases of a tie, an additional replicate was performed, which was sufficient to resolve it.
# [1] = E. coli MG1655, M9gluCAAT, 37°C, 20 h, inoculum ~250 cells/mL, mode across three biological replicates
compound,measurement,setting,value
"GIGKFLHSAKKFGKAFVGEIMNS [Mag2, magainin-2]",MIC (mode MIC),"MG1655, 20 h",40 µM
CC[C@H](C)[C@H](NC(=O)CNC(=O)[C@H](CC(=O)O)NC(=O)[C@H](CCCNC(=N)N)NC(=O)[C@@H](NC(=O)[C@H](CC(N)=O)NC(=O)[C@H](CCC(N)=O)NC(=O)CNC(=O)[C@@H](NC(=O)[C@H](CCCCN)NC(=O)[C@H](CCC(=O)O)NC(=O)[C@@H](NC(=O)[C@H](CCCCN)NC(=O)[C@H](CCCCN)NC(=O)[C@H](Cc1ccccc1)NC(=O)[C@H](CC(C)C)NC(=O)[C@H](CCCCN)NC(=O)[C@H](Cc1c[nH]c2ccccc12)NC(=O)[C@H](CCCCN)NC(=O)c1ccc2c(c1)C(=O)OC21c2ccc(N(C)C)cc2Oc2cc(N(C)C)ccc21)[C@@H](C)CC)C(C)C)[C@@H](C)CC)C(=O)N[C@H](C(=O)N[C@@H](CCCCN)C(=O)N[C@@H](C)C(=O)NCC(=O)N1CCC[C@H]1C(=O)N[C@@H](C)C(=O)N[C@H](C(=O)N[C@@H](C)C(=O)N[C@H](C(=O)N[C@H](C(=O)NCC(=O)N[C@@H](CCC(N)=O)C(=O)N[C@@H](C)C(=O)N[C@H](C(=O)N[C@@H](CCC(N)=O)C(=O)N[C@H](C(=O)N[C@@H](C)C(=O)N[C@@H](CCCCN)C(N)=O)[C@@H](C)CC)[C@@H](C)O)C(C)C)C(C)C)C(C)C)[C@@H](C)CC [5-TAMRA-CecA] (5TAMRA-KWKLFKKIEKVGQNIRDGIIKAGPAVAVVGQATQIAK-NH2; C-terminus assumed),MIC (mode MIC) of 5-TAMRA-labeled AMP derivatives,"MG1655, 20 h",2 µM
CC[C@H](C)[C@H](NC(=O)[C@H](CCCNC(=N)N)NC(=O)[C@@H]1CCCN1C(=O)[C@@H]1CCCN1C(=O)[C@H](CC(C)C)NC(=O)[C@H](CCCNC(=N)N)NC(=O)[C@@H]1CCCN1C(=O)[C@@H]1CCCN1C(=O)[C@H](Cc1ccccc1)NC(=O)[C@H](Cc1ccccc1)NC(=O)[C@@H]1CCCN1C(=O)[C@@H]1CCCN1C(=O)[C@@H]1CCCN1C(=O)[C@H](CCCNC(=N)N)NC(=O)[C@@H]1CCCN1C(=O)[C@H](CCCNC(=N)N)NC(=O)[C@@H]1CCCN1C(=O)[C@H](CC(C)C)NC(=O)[C@H](Cc1ccc(O)cc1)NC(=O)[C@@H]1CCCN1C(=O)[C@@H]1CCCN1C(=O)[C@H](CCCNC(=N)N)NC(=O)[C@@H]1CCCN1C(=O)[C@H](CCCNC(=N)N)NC(=O)[C@H](CCCNC(=N)N)NC(=O)[C@H](CCCNC(=N)N)NC(=O)c1ccc2c(c1)C(=O)OC21c2ccc(N(C)C)cc2Oc2cc(N(C)C)ccc21)C(=O)N1CCC[C@H]1C(=O)N1CCC[C@H]1C(=O)NCC(=O)N[C@@H](Cc1ccccc1)C(=O)N1CCC[C@H]1C(=O)N1CCC[C@H]1C(=O)N[C@@H](CCCNC(=N)N)C(=O)N[C@@H](Cc1ccccc1)C(=O)N1CCC[C@H]1C(=O)N1CCC[C@H]1C(=O)N[C@@H](CCCNC(=N)N)C(=O)N[C@@H](Cc1ccccc1)C(=O)N1CCC[C@H]1C(N)=O [5-TAMRA-PR-39] (5TAMRA-RRRPRPPYLPRPRPPPFFPPRLPPRIPPGFPPRFPPRFP-NH2; C-terminus assumed),MIC (mode MIC) of 5-TAMRA-labeled AMP derivatives,"MG1655, 20 h",2 µM
GLLRKGGEKIGEKLKKIGQKIKNFFQKLVPQPEQ [CRAMP],MIC (mode MIC),"E. coli MG1655, M9gluCAAT, 37°C, 20 h, inoculum ~250 cells/mL, max growth rate < 0.2 log(OD)/h, mode across three biological replicates with two technical replicates each",4 µM
"CO[C@H]1/C=C/O[C@@]2(C)Oc3c(C)c(O)c4c(O)c(c(/C=N/N5CCN(C)CC5)c(O)c4c3C2=O)NC(=O)/C(C)=C\C=C\[C@H](C)[C@H](O)[C@@H](C)[C@@H](O)[C@@H](C)[C@H](OC(C)=O)[C@@H]1C [Rif, rifampicin]","MIC (mode MIC), antibiotics",[1],16 µg/mL
CC[C@H](C)[C@H](NC(=O)[C@H](CCCNC(=N)N)NC(=O)[C@H](CCCNC(=N)N)NC(=O)c1ccc2c(c1)C(=O)OC21c2ccc(N(C)C)cc2Oc2cc(N(C)C)ccc21)C(=O)N[C@@H](CCCNC(=N)N)C(=O)N1CCC[C@H]1C(=O)N[C@@H](CCCNC(=N)N)C(=O)N1CCC[C@H]1C(=O)N1CCC[C@H]1C(=O)N[C@@H](CCCNC(=N)N)C(=O)N[C@@H](CC(C)C)C(=O)N1CCC[C@H]1C(=O)N[C@@H](CCCNC(=N)N)C(=O)N1CCC[C@H]1C(=O)N[C@@H](CCCNC(=N)N)C(=O)N1CCC[C@H]1C(=O)N[C@@H](CCCNC(=N)N)C(=O)N1CCC[C@H]1C(=O)N[C@@H](CC(C)C)C(=O)N1CCC[C@H]1C(=O)N[C@@H](Cc1ccccc1)C(=O)N1CCC[C@H]1C(=O)N[C@@H](CCCNC(=N)N)C(=O)N1CCC[C@H]1C(=O)NCC(=O)N1CCC[C@H]1C(=O)N[C@@H](CCCNC(=N)N)C(=O)N1CCC[C@H]1C(=O)N[C@H](C(=O)N1CCC[C@H]1C(=O)N[C@@H](CCCNC(=N)N)C(=O)N1CCC[C@H]1C(=O)N[C@@H](CC(C)C)C(=O)N1CCC[C@H]1C(=O)N[C@@H](Cc1ccccc1)C(=O)N1CCC[C@H]1C(=O)O)[C@@H](C)CC [5-TAMRA-Bac7] (5TAMRA-RRIRPRPPRLPRPRPRPLPFPRPGPRPIPRPLPFP-OH; C-terminus assumed),MIC (mode MIC) of 5-TAMRA-labeled AMP derivatives,"MG1655, 20 h",0.6 µM
CC[C@@H](C)[C@@H](NC(=O)[C@@H](C)NC(=O)[C@@H](CCCNC(=N)N)NC(=O)[C@@H](Cc1c[nH]c2ccccc12)NC(=O)[C@@H](CCC(N)=O)NC(=O)[C@H](NC(=O)c1ccc2c(c1)C(=O)OC21c2ccc(N(C)C)cc2Oc2cc(N(C)C)ccc21)C(C)C)C(=O)N[C@H](CCCNC(=N)N)C(=O)N[C@@H](C(=O)N[C@H](CCCNC(=N)N)C(=O)N[C@@H](C(=O)N[C@@H](C(=O)N[C@H](CCCNC(=N)N)C(N)=O)[C@H](C)CC)C(C)C)C(C)C [5-TAMRA-DJK-5] (5TAMRA-[dV][dQ][dW][dR][dA][dI][dR][dV][dR][dV][dI][dR]-NH2; C-terminus assumed),MIC (mode MIC) of 5-TAMRA-labeled AMP derivatives,"MG1655, 20 h",2.5 µM
CC[C@H](C)[C@H](NC(=O)[C@H](CCCCN)NC(=O)[C@H](CCC(=O)O)NC(=O)[C@H](CCCCN)NC(=O)[C@H](CO)NC(=O)[C@H](CCCCN)NC(=O)[C@H](CCCNC(=N)N)NC(=O)[C@H](Cc1ccccc1)NC(=O)[C@H](Cc1ccccc1)NC(=O)[C@H](CC(=O)O)NC(=O)CNC(=O)[C@H](CC(C)C)NC(=O)[C@H](CC(C)C)NC(=O)c1ccc2c(c1)C(=O)OC21c2ccc(N(C)C)cc2Oc2cc(N(C)C)ccc21)C(=O)NCC(=O)N[C@@H](CCCCN)C(=O)N[C@@H](CCC(=O)O)C(=O)N[C@@H](Cc1ccccc1)C(=O)N[C@@H](CCCCN)C(=O)N[C@@H](CCCNC(=N)N)C(=O)N[C@H](C(=O)N[C@H](C(=O)N[C@@H](CCC(N)=O)C(=O)N[C@@H](CCCNC(=N)N)C(=O)N[C@H](C(=O)N[C@@H](CCCCN)C(=O)N[C@@H](CC(=O)O)C(=O)N[C@@H](Cc1ccccc1)C(=O)N[C@@H](CC(C)C)C(=O)N[C@@H](CCCNC(=N)N)C(=O)N[C@@H](CC(N)=O)C(=O)N[C@@H](CC(C)C)C(=O)N[C@H](C(=O)N1CCC[C@H]1C(=O)N[C@@H](CCCNC(=N)N)C(=O)N[C@H](C(=O)N[C@@H](CCC(=O)O)C(=O)N[C@@H](CO)C(=O)O)[C@@H](C)O)C(C)C)[C@@H](C)CC)C(C)C)[C@@H](C)CC [5-TAMRA-LL-37],MIC (mode MIC) of 5-TAMRA-labeled AMP derivatives,[1],2 µM
"CN[C@@H]1[C@H](O)[C@H](NC)[C@H]2O[C@@]3(O)C(=O)C[C@@H](C)O[C@H]3O[C@@H]2[C@H]1O [Spect, spectinomycin]","MIC (mode MIC), antibiotics",[1],64 µg/mL
RRIPFWPPNWPGPWLPPWSPPDFRIPRILRKR [Tur1B],MIC (mode MIC),"MG1655, 20 h",8 µM
"RSIRRPRLPRPRVPRPYIPPRIPRPVLPPPRFPIPRFPRGR [CamBac, camel bactenecin]",MIC (mode MIC),"MG1655, 20 h",0.5 µM
